This note sets out measurements from PubChem BioAssay AID1259407 (Chemical Carcinogenesis Research Information System (CCRIS), 2018).

Activity calls are given as the source filed them. The rule behind the calls is not given here.

In this data set the test system is CCRIS mutagenicity, Ames/micronucleus/aberration tests. The experiment in a line: CCRIS mutagenicity studies.
The mark [1] stands for this setting: Test System: AMES SALMONELLA TYPHIMURIUM, Strain/Indicator: TA98, Metabolic Activation: NONE, Method: STANDARD PLATE.
Setting [2] is: Test System: AMES SALMONELLA TYPHIMURIUM, Strain/Indicator: TA100, Metabolic Activation: NONE, Method: STANDARD PLATE.
Where [3] appears, read: Test System: AMES SALMONELLA TYPHIMURIUM, Strain/Indicator: TA1535, Metabolic Activation: NONE, Method: STANDARD PLATE.
The mark [4] stands for this setting: Test System: AMES SALMONELLA TYPHIMURIUM, Strain/Indicator: TA98, Metabolic Activation: RAT, LIVER, S-9, AROCLOR 1254, Method: STANDARD PLATE.
The mark [5] stands for this setting: Test System: AMES SALMONELLA TYPHIMURIUM, Strain/Indicator: TA1537, Metabolic Activation: NONE, Method: STANDARD PLATE.
The mark [6] stands for this setting: Test System: AMES SALMONELLA TYPHIMURIUM, Strain/Indicator: TA1538, Metabolic Activation: NONE, Method: STANDARD PLATE.
[7] abbreviates: Test System: AMES SALMONELLA TYPHIMURIUM, Strain/Indicator: TA1538, Metabolic Activation: RAT, LIVER, S-9, AROCLOR 1254, Method: STANDARD PLATE.
Setting [8] is: Test System: AMES SALMONELLA TYPHIMURIUM, Strain/Indicator: TA98, Metabolic Activation: NONE, Method: PREINCUBATION

With `C[C@H]1C=C(C=O)[C@H](C=O)[C@@H](O)[C@@H]2CC(C)(C)C[C@@H]21`, the mutagenic call under setting [1] was “inactive; negative”; the mutagenic call under setting [2] is “inactive; negative”; the mutagenic call (Test System: AMES SALMONELLA TYPHIMURIUM, Strain/Indicator: TA2637, Metabolic Activation: NONE, Method: STANDARD PLATE) was “inactive; negative”.

In the case of `NC1CCC(N)CC1` (stereo unspecified), the mutagenic call (Test System: AMES SALMONELLA TYPHIMURIUM, Strain/Indicator: TA97, Metabolic Activation: NONE, Method: STANDARD PLATE) was “inactive; negative”; the mutagenic call (Test System: AMES SALMONELLA TYPHIMURIUM, Strain/Indicator: TA97, Metabolic Activation: RAT, LIVER, S-9, Method: STANDARD PLATE) was “inactive; negative”; the mutagenic call under setting [1] was “inactive; negative”; the mutagenic call (Test System: AMES SALMONELLA TYPHIMURIUM, Strain/Indicator: TA98, Metabolic Activation: RAT, LIVER, S-9, Method: STANDARD PLATE) was “inactive; negative”; the mutagenic call under setting [2] was “inactive; negative”; the mutagenic call (Test System: AMES SALMONELLA TYPHIMURIUM, Strain/Indicator: TA100, Metabolic Activation: RAT, LIVER, S-9, Method: STANDARD PLATE) was “inactive; negative”. In addition, the mutagenic call runs as follows: under setting [3], “inactive; negative”; (Test System: AMES SALMONELLA TYPHIMURIUM, Strain/Indicator: TA1535, Metabolic Activation: RAT, LIVER, S-9, Method: STANDARD PLATE) “inactive; negative”.

Turning to `CCCCN(CC)c1c([N+](=O)[O-])cc(C(F)(F)F)cc1[N+](=O)[O-]`, the mutagenic call by setting is: (End Point: In vitro Chromosomal aberration, Test System: CHO cells, Metabolic Activation: None) “inactive; negative”; (End Point: In vitro Chromosomal aberration, Test System: CHO cells, Metabolic Activation: Rodent, liver, S-9, Aroclor) “inactive; negative”.

Regarding `c1cnc2c(c1)ccc1c2ccc2cccnc21`, the mutagenic call reads like this: (Test System: AMES SALMONELLA TYPHIMURIUM, Strain/Indicator: TA100, Metabolic Activation: POOLED HUMAN LIVER MICROSOMES, Method: PREINCUBATION) “active; positive”; (Test System: AMES SALMONELLA TYPHIMURIUM, Strain/Indicator: TA100, Metabolic Activation: RAT, LIVER, S-9, PHENOBARBITAL AND 5,6-BENZOFLAVONE, Method: PREINCUBATION) “active; positive”; (Test System: Ames Salmonella typhimurium, Strain/Indicator: TA100, Metabolic Activation: Rat, Liver, S-9) “active; positive”; (Test System: LACZ TRANSGENIC MOUSE (MUTATM MOUSE), Strain/Indicator: LACZ MUTANT FREQUENCY, Method: LIVER, SPLEEN, LUNG, KIDNEY, BONE MARROW, COLON HARVESTED 7 D AFTER LAST DOSE, DNA ISOLATED) “active; positive; g:c to t:a transversions in all organs”.

On to `c1ccc(Cc2ccc(OCC3CO3)cc2)cc1` (stereo unspecified), for which the mutagenic call by setting is: under setting [2], “active; positive”; under setting [3], “active; positive”.

For `CCCCOC(=O)CC(CC(=O)OCCCC)(OC(C)=O)C(=O)OCCCC`, the mutagenic call by setting is: (Test System: AMES SALMONELLA TYPHIMURIUM, Strain/Indicator: TA98, Metabolic Activation: HAMSTER, LIVER, S-9, AROCLOR 1254, Method: STANDARD PLATE) “inactive; negative”; under setting [1], “inactive; negative”; under setting [4], “inactive; negative”; (Test System: AMES SALMONELLA TYPHIMURIUM, Strain/Indicator: TA100, Metabolic Activation: HAMSTER, LIVER, S-9, AROCLOR 1254, Method: STANDARD PLATE) “inactive; negative”; under setting [2], “inactive; negative”; (Test System: AMES SALMONELLA TYPHIMURIUM, Strain/Indicator: TA100, Metabolic Activation: RAT, LIVER, S-9, AROCLOR 1254, Method: STANDARD PLATE) “inactive; negative”. Also, the mutagenic call (Test System: AMES SALMONELLA TYPHIMURIUM, Strain/Indicator: TA1535, Metabolic Activation: HAMSTER, LIVER, S-9, AROCLOR 1254, Method: STANDARD PLATE) was “inactive; negative”; the mutagenic call under setting [3] is “inactive; negative”; the mutagenic call (Test System: AMES SALMONELLA TYPHIMURIUM, Strain/Indicator: TA1535, Metabolic Activation: RAT, LIVER, S-9, AROCLOR 1254, Method: STANDARD PLATE) is “inactive; negative”; the mutagenic call (Test System: AMES SALMONELLA TYPHIMURIUM, Strain/Indicator: TA1537, Metabolic Activation: HAMSTER, LIVER, S-9, AROCLOR 1254, Method: STANDARD PLATE) is “inactive; negative”; the mutagenic call under setting [5] is “inactive; negative”; the mutagenic call (Test System: AMES SALMONELLA TYPHIMURIUM, Strain/Indicator: TA1537, Metabolic Activation: RAT, LIVER, S-9, AROCLOR 1254, Method: STANDARD PLATE) is “inactive; negative”. Besides, the mutagenic call is, setting by setting: (Test System: AMES SALMONELLA TYPHIMURIUM, Strain/Indicator: TA1538, Metabolic Activation: HAMSTER, LIVER, S-9, AROCLOR 1254, Method: STANDARD PLATE) “inactive; negative”; under setting [6], “inactive; negative”; under setting [7], “inactive; negative”; (Test System: MOUSE LYMPHOMA, Strain/Indicator: L5178Y (TK+/TK-), Metabolic Activation: NONE, Method: SUSPENSION/PLATE) “inactive; negative. reevaluation of results: inconclusive”; (Test System: MOUSE LYMPHOMA, Strain/Indicator: L5178Y (TK+/TK-), Metabolic Activation: RAT, LIVER, S-9, AROCLOR 1254, Method: SUSPENSION/PLATE) “inactive; negative. reevaluation of results: negative”.

For `c1ccc2c(c1)cc1ccc3c4ccccc4cc4ccc2c1c43`, for the setting “Test System: HUMAN H1A1V2 CELLS, Strain/Indicator: TK LOCUS, Metabolic Activation: NONE, Method: SUSPENSION/PLATE”, the mutagenic call is “active; positive”.

For `COc1cccc2c1C(=O)c1c(O)c3c(c(O)c1C2=O)C[C@@](O)(C(C)=O)C[C@@H]3O`, the mutagenic call reads like this: under setting [1], “active; positive”; under setting [4], “active; positive”; under setting [2], “inactive; negative”; under setting [6], “inactive; negative”.

Take `Cc1cccc2ccc([N+](=O)[O-])cc12`: the mutagenic call under setting [8] is “active; positive”.

For `CC(=O)Nc1snc2c(Cl)cc(Cl)cc12`, the mutagenic call is “inactive; negative” under setting [1]; “inactive; negative” (Test System: AMES SALMONELLA TYPHIMURIUM, Strain/Indicator: TA98, Metabolic Activation: S-9, Method: STANDARD PLATE); “inactive; negative” under setting [2]; “inactive; negative” (Test System: AMES SALMONELLA TYPHIMURIUM, Strain/Indicator: TA100, Metabolic Activation: S-9, Method: STANDARD PLATE); “inactive; negative” under setting [3]; “inactive; negative” (Test System: AMES SALMONELLA TYPHIMURIUM, Strain/Indicator: TA1535, Metabolic Activation: S-9, Method: STANDARD PLATE). Moreover, the mutagenic call was “inactive; negative” under setting [5] and “inactive; negative” (Test System: AMES SALMONELLA TYPHIMURIUM, Strain/Indicator: TA1537, Metabolic Activation: S-9, Method: STANDARD PLATE).

`C=C(C)C1CCC(=C)C2C3=C(C[C@@H](C)C3=O)C(=O)C(C)=C[C@@H]12` (stereo partly specified): the mutagenic call reads like this: under setting [1], “inactive; negative”; (Test System: AMES SALMONELLA TYPHIMURIUM, Strain/Indicator: TA98, Method: STANDARD PLATE) “inactive; negative”; under setting [2], “inactive; negative”; (Test System: AMES SALMONELLA TYPHIMURIUM, Strain/Indicator: TA100, Method: STANDARD PLATE) “inactive; negative”.

For `O[C@@H]1[C@@H]2O[C@@H]2c2c(ccc3cc4ccc5ccccc5c4nc23)[C@H]1O`, the mutagenic call was “active; positive” under setting [8]; “active; positive” (Test System: AMES SALMONELLA TYPHIMURIUM, Strain/Indicator: TA100, Metabolic Activation: NONE, Method: PREINCUBATION); “active; positive” (Test System: CHINESE HAMSTER V-79, Strain/Indicator: V-79/8-AZAGUANINE, Metabolic Activation: NONE, Method: STANDARD PLATE).

`Nc1ccc(-c2ccc(-c3ccc(-c4ccc(N)cc4)cc3)cc2)cc1`: the mutagenic call reads like this: under setting [6], “inactive; negative”; under setting [7], “inactive; negative”.

Consider `CC(Cl)CO` (stereo unspecified), for which the mutagenic call reads like this: (Test System: AMES SALMONELLA TYPHIMURIUM, Strain/Indicator: TA1530, Metabolic Activation: NONE, Method: STANDARD PLATE) “active; positive”; (Test System: AMES SALMONELLA TYPHIMURIUM, Strain/Indicator: TA1535, Metabolic Activation: RAT, LIVER, S-9, PCB, Method: STANDARD PLATE) “active; positive”.
